Measurements reported in ChEMBL document CHEMBL5154690, “Discovery of a tricyclic farnesoid X receptor agonist HEC96719, a clinical candidate for treatment of non-alcoholic steatohepatitis” (Eur J Med Chem, 2022).
Activity calls are given as the source filed them. No cut-off for these calls is given here.

Experiments:
[1] = Half-life in male Sprague-Dawley rat at 1 mg/kg, iv measured by LC-MS/MS analysis; format: ADME, organism-based; conditions: in vivo
[2] = Clearance in male Beagle dog at 1 mg/kg, iv measured by LC-MS/MS analysis; format: ADME, organism-based, Canis lupus familiaris; conditions: in vivo
[3] = Cmax in male Sprague-Dawley rat at 5 mg/kg, po measured by LC-MS/MS analysis; format: ADME, organism-based; set-up: dose 5 mg/kg, route po; conditions: in vivo
Mus musculus [4] = assay: Anti-NASH activity in western style diet-induced nonalcoholic steatohepatitis model of male C57BL/6 mouse assessed as reduction in liver fibrosis at 1 mg/kg, po administered once daily from week 32 to 44; format: functional, organism-based
[5] = Drug recovery in liver of male Sprague-Dawley rat at 4.5 mg/kg, po administered as C14-lableled compound and assessed as radioactivity and measured at 1 hr; format: ADME, organism-based; conditions: in vivo
[6] = Drug recovery in plasma of male Sprague-Dawley rat at 4.5 mg/kg, po administered as C14-lableled compound and assessed as radioactivity and measured at 24 hrs; format: ADME, organism-based; conditions: in vivo, BLD = below limit of detection
Bile acid receptor [7] = molecular target: T1, Bile acid receptor (Homo sapiens, UniProt Q96RI1); assay: Agonist activity at human FXR expressed in HEK293T cells by luciferase reporter assay; format: cell-based
T1 sequence (Q96RI1 whole entry): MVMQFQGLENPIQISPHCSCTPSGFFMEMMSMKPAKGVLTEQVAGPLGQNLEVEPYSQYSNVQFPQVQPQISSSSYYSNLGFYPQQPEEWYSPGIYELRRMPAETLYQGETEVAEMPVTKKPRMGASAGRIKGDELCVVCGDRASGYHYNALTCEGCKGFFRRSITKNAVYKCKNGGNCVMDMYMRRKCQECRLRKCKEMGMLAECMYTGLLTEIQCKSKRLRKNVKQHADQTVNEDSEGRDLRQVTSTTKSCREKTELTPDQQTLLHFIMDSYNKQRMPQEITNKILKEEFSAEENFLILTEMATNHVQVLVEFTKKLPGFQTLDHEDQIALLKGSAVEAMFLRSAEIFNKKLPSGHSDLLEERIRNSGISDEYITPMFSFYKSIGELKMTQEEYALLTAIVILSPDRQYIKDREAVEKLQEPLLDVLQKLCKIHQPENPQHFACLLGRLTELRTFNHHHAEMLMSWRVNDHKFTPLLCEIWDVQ

Mus musculus [8] = assay: Antifibrotic activity in C57BL/6 mouse model of CCI4-induced liver fibrosis assessed as decrease in serum ALT level at 1 mg/kg, po administered once daily for 4 weeks; format: functional, organism-based
[9] = Drug recovery in spleen of male Sprague-Dawley rat at 4.5 mg/kg, po administered as C14-lableled compound and assessed as radioactivity and measured at 1 hr; format: ADME, organism-based; conditions: in vivo
[10] = Oral bioavailability in male Beagle dog at 5 mg/kg measured by LC-MS/MS analysis; format: ADME, organism-based, Canis lupus familiaris; conditions: in vivo
[11] = Half-life in male Sprague-Dawley rat at 5 mg/kg, po measured by LC-MS/MS analysis; format: ADME, organism-based; conditions: in vivo
[12] = AUC (0 to t) in male Sprague-Dawley rat at 1 mg/kg, iv measured by LC-MS/MS analysis; format: ADME, organism-based; set-up: dose 1 mg/kg, route iv; conditions: in vivo
[13] = Drug recovery in skin of male Sprague-Dawley rat at 4.5 mg/kg, po administered as C14-lableled compound and assessed as radioactivity and measured at 24 hrs; format: ADME, organism-based, Skin of body; conditions: in vivo, BLD = below limit of detection
Mus musculus [14] = assay: Anti-NASH activity against high fat (HF) diet-induced nonalcoholic steatohepatitis in leptin-deficient ob/ob mouse model assessed as reduction in serum ALT level at 3 mg/kg, po administered once daily from week 5 to 10; format: functional, organism-based
[15] = Drug recovery in brain of male Sprague-Dawley rat at 4.5 mg/kg, po administered as C14-lableled compound and assessed as radioactivity and measured at 6 hrs; format: ADME, organism-based; conditions: in vivo, BLD = below limit of detection
[16] = Ratio of drug level in kidney to plasma in male Sprague-Dawley rat at 4.5 mg/kg, po administered as C14-lableled compound and measured at 0.25 to 6 hrs; format: ADME, organism-based; conditions: other tissue, time 0.25-6 hrs
[17] = Drug metabolism in urine of Sprague-Dawley rat assessed as production of toxic metabolites at 4.5 mg/kg, po administered as C14-lableled compound with single dose; format: ADME, organism-based; conditions: in vivo
[18] = Drug recovery in stomach of male Sprague-Dawley rat at 4.5 mg/kg, po administered as C14-lableled compound and assessed as radioactivity and measured at 24 hrs; format: ADME, organism-based; conditions: in vivo
Bile acid receptor [19] = molecular target: T1, Bile acid receptor; assay: Agonist activity at FXR-LBD (unknown origin) assessed as induction of coactivator SRC-1 peptide recruitment measured by TR-FRET assay
[20] = Drug recovery in brain of male Sprague-Dawley rat at 4.5 mg/kg, po administered as C14-lableled compound and assessed as radioactivity and measured at 1 hr; format: ADME, organism-based; conditions: in vivo
[21] = molecular target: T2, Bile acid receptor (Rattus norvegicus) (UniProt Q62735); assay: In vivo activation of FXR in male Sprague-Dawley rat assessed as fold increase in ileum FGF15 level at 5 mg/kg, po administered as single dose measured at 1 hr by RT-qPCR assay; format: functional, organism-based
T2 sequence (whole entry): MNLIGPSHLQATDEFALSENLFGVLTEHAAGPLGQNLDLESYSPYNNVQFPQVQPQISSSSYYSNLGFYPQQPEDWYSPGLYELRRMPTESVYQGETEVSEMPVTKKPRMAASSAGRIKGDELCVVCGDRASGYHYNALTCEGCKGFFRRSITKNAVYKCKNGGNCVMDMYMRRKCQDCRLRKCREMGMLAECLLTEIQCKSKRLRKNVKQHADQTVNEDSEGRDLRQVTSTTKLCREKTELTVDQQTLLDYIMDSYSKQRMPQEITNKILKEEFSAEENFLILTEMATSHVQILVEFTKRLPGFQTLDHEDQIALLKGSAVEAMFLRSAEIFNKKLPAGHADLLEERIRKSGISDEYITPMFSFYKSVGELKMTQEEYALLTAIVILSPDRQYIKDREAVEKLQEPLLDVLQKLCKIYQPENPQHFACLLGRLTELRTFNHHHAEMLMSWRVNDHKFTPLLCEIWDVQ

[22] = molecular target: T3, G-protein coupled bile acid receptor 1 (Homo sapiens, UniProt Q8TDU6); assay: Agonist activity in human GPBAR1 assessed as increase in intracellular cAMP level; format: functional, cell-based
T3 sequence (Q8TDU6 whole entry): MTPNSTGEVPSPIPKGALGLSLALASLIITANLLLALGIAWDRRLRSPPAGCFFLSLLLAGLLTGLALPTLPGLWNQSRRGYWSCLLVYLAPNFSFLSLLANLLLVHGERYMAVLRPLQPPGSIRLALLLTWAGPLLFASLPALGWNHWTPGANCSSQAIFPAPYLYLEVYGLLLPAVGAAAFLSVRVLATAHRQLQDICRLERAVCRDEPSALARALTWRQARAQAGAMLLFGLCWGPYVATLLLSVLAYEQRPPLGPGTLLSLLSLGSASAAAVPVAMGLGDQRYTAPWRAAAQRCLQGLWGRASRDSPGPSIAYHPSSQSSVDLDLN

[23] = Drug recovery in stomach of male Sprague-Dawley rat at 4.5 mg/kg, po administered as C14-lableled compound and assessed as radioactivity and measured at 1 hr; format: ADME, organism-based; conditions: in vivo

## O=C(O)c1ccc2c(c1)Oc1ccc(OCc3c(-c4c(Cl)cccc4Cl)noc3C3CC3)nc1C1(CC1)C2
[1]
  half-life: 16.8 min
[2]
  clearance: 1.1 L/h/kg
[3]
  Cmax: 1.09 µg/mL
Mus musculus [4]
  Activity: Active
[5]
  Drug recovery: 6520 ngequiv/g
[6]
  Drug recovery: Bld
Bile acid receptor [7]
  EC50: 1.55 nM
Mus musculus [8]
  Activity: Active
[9]
  Drug recovery: 104 ngequiv/g
[10]
  bioavailability: 42.3%
[11]
  half-life: 96 min
[12]
  AUC(0-t): 0.473 µg·h/mL
[13]
  Drug recovery: Bld
Mus musculus [14]
  Activity: Active
[15]
  Drug recovery: Bld
[16]
  Ratio: 1.8
[17]
  Drug metabolism: Metabolite_Notdetected
[18]
  Drug recovery: 108 ngequiv/g
Bile acid receptor [19]
  EC50: 1.37 nM
[20]
  Drug recovery: 38.2 ngequiv/g
[21]
  fold change (FC): 24
[22]
  EC50: > 10000 nM
[23]
  Drug recovery: 1536 ngequiv/g
